Tests used:
Assay type in all cases: cell-based
[1] = test system: T-Rex 293 cells lacking increased expression of estrogen receptor alpha protein; experiment: Cellular growth inhibition assay, T-Rex 293 cells, (−) doxycycline; settings: T-REx-293, 72 h, Table 7-A; T-Rex 293 cells without doxycycline (lacking increased ERα expression); 72 hours; CellTiter-Glo; read-out: (−) Dox GI50
In short: (§1)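 Cells of an inducible ERα-expressing T-Rex 293 clone are seeded in charcoal-dextran FBS medium with or without 3 ng/mL doxycycline, then treated after 24 h with compound dilutions (0.5% DMSO) for 72 h. Growth inhibition is measured by CellTiter-Glo luminescence and expressed as GI50.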

[2] = test system: MCF7 cells (ATCC #HTB-22); experiment: Cellular growth inhibition assay, MCF7 cells purchased from ATCC; settings: Homo sapiens, MCF7, 144 h, Table 8-A; MCF7 cells purchased from ATCC; six days; CellTiter-Glo; read-out: GI50
In short: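 GI50 values come from a four-parameter fit of CellTiter-Glo 2.0 luminescence after six days of compound exposure at 37° C. Seeding density depended on the source: 225 cells/well for ECACC MCF7, 1,500 for ATCC. Medium was RPMI 1640 with 10% FBS and 0.2 U/ml insulin.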

[3] = test system: T-Rex 293 cells having increased expression of estrogen receptor alpha protein; experiment: Cellular growth inhibition assay, T-Rex 293 cells, (+) doxycycline; settings: T-REx-293, 72 h, Table 7-A; T-Rex 293 cells with doxycycline (increased ERα expression); 72 hours; CellTiter-Glo; read-out: (+) Dox GI50
In short: as §1

| Compound | GI50 [1] [nM] | GI50 [2] [nM] | GI50 [3] [nM] |
| --- | --- | --- | --- |
| Cc1sc2c(c1C)C(c1ccc(C3CCC4(CCN(CN5CC(c6ccc([C@@H]7c8ccc(O)cc8CC[C@@H]7c7ccccc7)cc6)C5)CC4)C3)cc1)=N[C@@H](C)c1nnc(C)n1-2 (stereo partly drawn) [III-228] | 500 to 2500 | 50 to 500 | < 50 |
| Cc1sc2c(c1C)C(c1ccc(N3CC4(CCC(CN5CCC(c6ccc([C@@H]7c8ccc(O)cc8CC[C@@H]7c7ccccc7)cc6)CC5)CC4)C3)cc1)=N[C@@H](C)c1nnc(C)n1-2 [III-229] | 500 to 2500 | 50 to 500 | < 50 |
| Cc1sc2c(c1C)C(c1ccc(N3CC4(CCC(CN5CCN(c6ccc([C@@H]7c8ccc(O)cc8CC[C@@H]7c7ccccc7)cc6)CC5)CC4)C3)cc1)=N[C@@H](C)c1nnc(C)n1-2 [III-230] | > 2500 | 50 to 500 | < 50 |
| Cc1sc2c(c1C)C(c1ccc(N3CCN(CC4CCN(c5ccc([C@@H]6c7ccc(O)cc7CC[C@@H]6c6ccccc6)cc5)CC4)CC3)cc1)=N[C@H](Cc1nccs1)c1nnc(C)n1-2 [III-231] | > 2500 | 500 to 2500 | > 2500 |
| Cc1sc2c(c1C)C(c1ccc(N3CCN(CC4CCN(c5ccc([C@@H]6c7ccc(O)cc7CC[C@@H]6c6ccccc6)cc5)CC4)CC3)cc1)=N[C@@H](Cc1nccs1)c1nnc(C)n1-2 [III-232] | > 2500 | < 50 | < 50 |
| Cc1sc2c(c1C)C(c1ccc(N3CC(C[C@H]4CC[C@H](CN5CC(c6ccc([C@@H]7c8ccc(O)cc8CC[C@@H]7c7ccccc7)cc6)C5)CC4)C3)cc1)=N[C@@H](C)c1nnc(C)n1-2 [III-233] | 500 to 2500 | 50 to 500 | < 50 |
| Cc1sc2c(c1C)C(c1ccc(C3CN(C[C@H]4CC[C@H](CN5CC(c6ccc([C@@H]7c8ccc(O)cc8CC[C@@H]7c7ccccc7)cc6)C5)CC4)C3)cc1)=N[C@@H](C)c1nnc(C)n1-2 [III-234] | 500 to 2500 | 50 to 500 | < 50 |
| Cc1sc2c(c1C)C(c1ccc(N3CC(CC4(O)CCN(CC5CN(c6ccc([C@@H]7c8ccc(O)cc8CC[C@@H]7c7ccccc7)cc6)C5)CC4)C3)cc1)=N[C@@H](C)c1nnc(C)n1-2 [III-235] | 500 to 2500 | < 50 | < 50 |
| Cc1sc2c(c1C)C(c1ccc(N3CCC(O)(CN4CCN(c5cc(F)c([C@@H]6c7ccc(O)cc7CC[C@@H]6c6ccc(F)cc6)c(F)c5)CC4)CC3)cc1)=N[C@@H](C)c1nnc(C)n1-2 [III-236] | 500 to 2500 | < 50 | < 50 |
| Cc1sc2c(c1C)C(c1ccc(N3CCC(O)(CN4CCN(c5cc(F)c([C@H]6c7ccc(O)cc7CC[C@H]6c6ccc(F)cc6)c(F)c5)CC4)CC3)cc1)=N[C@@H](C)c1nnc(C)n1-2 [III-237] | 500 to 2500 | 50 to 500 | 50 to 500 |
| Cc1sc2c(c1C)C(c1ccc(N3CC(CC4(O)CCN(CC5CN(c6ccc([C@H]7c8ccc(O)cc8CC[C@H]7c7ccc(F)cc7)cc6)C5)CC4)C3)cc1)=N[C@@H](C)c1nnc(C)n1-2 [III-238] | 500 to 2500 | 50 to 500 | 50 to 500 |
| Cc1sc2c(c1C)C(c1ccc(N3CC(CC4(O)CCN(CC5CN(c6ccc([C@@H]7c8ccc(O)cc8CC[C@@H]7c7ccc(F)cc7)cc6)C5)CC4)C3)cc1)=N[C@@H](C)c1nnc(C)n1-2 [III-239] | 50 to 500 | < 50 | < 50 |
| Cc1sc2c(c1C)C(c1ccc(N3CC(CC4(O)CN(CC5CN(c6ccc([C@@H]7c8ccc(O)cc8CC[C@@H]7c7ccccc7)cc6)C5)C4)C3)cc1)=NC(C)c1nnc(C)n1-2 (stereo partly drawn) [III-240] | 50 to 500 | < 50 | < 50 |
| Cc1sc2c(c1C)C(c1ccc(N3CC(O)(CC4CN(CC5CN(c6ccc([C@@H]7c8ccc(O)cc8CC[C@@H]7c7ccccc7)cc6)C5)C4)C3)cc1)=N[C@@H](C)c1nnc(C)n1-2 [III-241] | 50 to 500 | < 50 | < 50 |
| Cc1sc2c(c1C)C(c1ccc(N3CC4(CC(CN5CCC(c6ccc([C@@H]7c8ccc(O)cc8CC[C@@H]7c7ccccc7)cc6)CC5)C4)C3)cc1)=N[C@@H](C)c1nnc(C)n1-2 [III-242] | 500 to 2500 | < 50 | < 50 |
| Cc1sc2c(c1C)C(c1ccc(N3CC4(CC(CN5CCN(c6ccc([C@@H]7c8ccc(O)cc8CC[C@@H]7c7ccccc7)cc6)CC5)C4)C3)cc1)=N[C@@H](C)c1nnc(C)n1-2 [III-243] | 500 to 2500 | < 50 | < 50 |

| Compound | GI50 [1] [nM] | GI50 [2] [nM] | GI50 [3] [nM] |
| --- | --- | --- | --- |
| Cc1sc2c(c1C)C(c1ccc(N3CCC(O)(CN4CCN(c5cc(F)c([C@@H]6c7ccc(O)cc7CC[C@@H]6c6ccccc6)cc5F)CC4)CC3)cc1)=N[C@@H](C)c1nnc(C)n1-2 [III-246] | 500 to 2500 | < 50 | < 50 |
| Cc1sc2c(c1C)C(c1ccc(N3CCC(O)(CN4CCN(c5cc(F)c([C@H]6c7ccc(O)cc7CC[C@H]6c6ccccc6)cc5F)CC4)CC3)cc1)=N[C@@H](C)c1nnc(C)n1-2 [III-247] | 50 to 500 | 50 to 500 | < 50 |
| Cc1sc2c(c1C)C(c1ccc(N3CCC(O)(CN4CCN(c5ccc([C@@H]6c7ccc(O)cc7CC[C@@H]6c6ccc(F)cc6)c(F)c5)CC4)CC3)cc1)=N[C@@H](C)c1nnc(C)n1-2 [III-248] | 500 to 2500 | < 50 | < 50 |
| Cc1sc2c(c1C)C(c1ccc(N3CCC(O)(CN4CCN(c5ccc([C@H]6c7ccc(O)cc7CC[C@H]6c6ccc(F)cc6)c(F)c5)CC4)CC3)cc1)=N[C@@H](C)c1nnc(C)n1-2 [III-249] | 500 to 2500 | 50 to 500 | 50 to 500 |
| Cc1sc2c(c1C)C(c1ccc(N3CCC(O)(CN4CCN(c5ccc([C@H]6c7ccc(O)cc7CC[C@H]6c6ccc(F)cc6)cc5F)CC4)CC3)cc1)=N[C@@H](C)c1nnc(C)n1-2 [III-250, 4-((4-(2-fluoro-4-((1S,2R)-2-(4-fluorophenyl)-6-hydroxy-1,2,3,4-tetrahydronaphthalen-1-yl)phenyl)piperazin-1-yl)methyl)-1-(4-((S)-2,3,6,9-tetramethyl-6H-thieno[3,2-f][1,2,4]triazolo[4,3-a][1,4]diazepin-4-yl)phenyl)piperidin-4-ol] | 50 to 500 | 50 to 500 | 50 to 500 |
| Cc1sc2c(c1C)C(c1ccc(N3CCC(O)(CN4CCN(c5ccc([C@@H]6c7ccc(O)cc7CC[C@@H]6c6ccc(F)cc6)cc5F)CC4)CC3)cc1)=N[C@@H](C)c1nnc(C)n1-2 [III-251, 4-((4-(2-fluoro-4-((1R,2S)-2-(4-fluorophenyl)-6-hydroxy-1,2,3,4-tetrahydronaphthalen-1-yl)phenyl)piperazin-1-yl)methyl)-1-(4-((S)-2,3,6,9-tetramethyl-6H-thieno[3,2-f][1,2,4]triazolo[4,3-a][1,4]diazepin-4-yl)phenyl)piperidin-4-ol] | 500 to 2500 | < 50 | < 50 |
| Cc1sc2c(c1C)C(c1ccc(N3CC4(CCC(CN5CCC(c6ccc([C@H]7c8ccc(O)cc8CC[C@H]7c7ccc(F)cc7)cc6)CC5)CC4)C3)cc1)=N[C@@H](C)c1nnc(C)n1-2 [III-252] | 500 to 2500 | 500 to 2500 | 50 to 500 |
| Cc1sc2c(c1C)C(c1ccc(N3CC4(CCC(CN5CCC(c6ccc([C@@H]7c8ccc(O)cc8CC[C@@H]7c7ccc(F)cc7)cc6)CC5)CC4)C3)cc1)=N[C@@H](C)c1nnc(C)n1-2 [III-253] | 500 to 2500 | < 50 | < 50 |
| COc1cc([C@H]2c3ccc(O)cc3CC[C@H]2c2ccc(F)cc2)ccc1N1CCN(CC2(O)CCN(c3ccc(C4=N[C@@H](C)c5nnc(C)n5-c5sc(C)c(C)c54)cc3)CC2)CC1 [III-254] | 500 to 2500 | 50 to 500 | < 50 |
| COc1cc([C@@H]2c3ccc(O)cc3CC[C@@H]2c2ccc(F)cc2)ccc1N1CCN(CC2(O)CCN(c3ccc(C4=N[C@@H](C)c5nnc(C)n5-c5sc(C)c(C)c54)cc3)CC2)CC1 [III-255] | 500 to 2500 | 50 to 500 | < 50 |
| Cc1sc2c(c1C)C(c1ccc(N3CCC(O)(CN4CCN(c5cc(F)c([C@@H]6c7ccc(O)cc7CC[C@@H]6c6ccc(F)cc6)cc5F)CC4)CC3)cc1)=N[C@@H](C)c1nnc(C)n1-2 [III-256] | 500 to 2500 | < 50 | < 50 |
| Cc1sc2c(c1C)C(c1ccc(N3CCC(O)(CN4CCN(c5cc(F)c([C@H]6c7ccc(O)cc7CC[C@H]6c6ccc(F)cc6)cc5F)CC4)CC3)cc1)=N[C@@H](C)c1nnc(C)n1-2 [III-257] | 500 to 2500 | 50 to 500 | 50 to 500 |
| Cc1sc2c(c1C)C(c1ccc(N3CCC(O)(CN4CCN(c5ccc([C@H]6c7ccc(O)cc7CC[C@H]6c6ccc(F)cc6F)cc5)CC4)CC3)cc1)=N[C@@H](Cc1ncco1)c1nnc(C)n1-2 [III-258] | 50 to 500 | 50 to 500 | 50 to 500 |
| Cc1sc2c(c1C)C(c1ccc(N3CCC(O)(CN4CCN(c5ccc([C@@H]6c7ccc(O)cc7CC[C@@H]6c6ccc(F)cc6F)cc5)CC4)CC3)cc1)=N[C@@H](Cc1ncco1)c1nnc(C)n1-2 [III-259] | 500 to 2500 | < 50 | < 50 |
| Cc1sc2c(c1C)C(c1ccc(C3CN(C[C@H]4C[C@@H](CN5CC(c6ccc([C@@H]7c8ccc(O)cc8CC[C@@H]7c7ccccc7)cc6)C5)C4)C3)cc1)=N[C@@H](C)c1nnc(C)n1-2 [III-260] | 500 to 2500 | 50 to 500 | < 50 |

Reference: patent US12558428B2, “Heterobifunctional compounds and their use in treating disease” (Halda Therapeutics OpCo, Inc., priority 2024, dated 2026)
